According to US6914045B2, “Glycopeptide antibiotics” (Wyeth Holdings Corporation, priority 2001, dated 2005):
Converted amounts (≈) assume the structure as drawn.

Assays:
Assay in all cases: in vitro antibacterial evaluation, MIC by broth dilution
Type in all cases: cell-based
Enterococcus sp. = details: broth dilution, 18 hours at 35° C.
How it was run: (§1)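 Inoculum 5×10^5 CFU/mL; concentrations 64 to 0.06 μg/mL; MIC defined as lowest inhibitory level. Conducted by broth dilution under NCCLS guidelines.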

Staphylococcus sp. = details: broth dilution, 18 hours at 35° C.
How it was run: as §1

Streptococcus sp. = details: broth dilution, 18 hours at 35° C.
How it was run: as §1

Escherichia coli = details: 18 hours at 35° C.

Compound: COc1ccc(COCC2OC(OC3C(CO)OC(Oc4ccc(CC5NC(=O)C(C(C)c6ccccc6)NC(=O)CNC(=O)C(CO)NC(=O)C(C(O)C6CNC(=N)N6C6OC(CO)C(O)C(O)C6O)NC(=O)C(C(O)C6CNC(=N)N6)NC5=O)cc4)C(O)C3O)C(O)C(O)C2O)cc1OCc1ccccc1 (stereo not shown) [Example 239]
- MIC Enterococcus avium (GC 4558) (Enterococcus sp.): 4 µg/mL (≈ 2.63 µM)
- MIC Enterococcus faecalis (ATCC 29212) (Enterococcus sp.): 4 µg/mL (≈ 2.63 µM)
- MIC Enterococcus faecalis (GC 2242) (Enterococcus sp.): 4 µg/mL (≈ 2.63 µM)
- MIC Enterococcus faecalis (GC 2691) (Enterococcus sp.): 4 µg/mL (≈ 2.63 µM)
- MIC Enterococcus faecalis (GC 3059) (Enterococcus sp.): 4 µg/mL (≈ 2.63 µM)
- MIC Enterococcus faecalis (GC 4552) (Enterococcus sp.): 4 µg/mL (≈ 2.63 µM)
- MIC Enterococcus faecalis (GC 4553) (Enterococcus sp.): 4 µg/mL (≈ 2.63 µM)
- MIC Enterococcus faecalis (GC 4554) (Enterococcus sp.): 4 µg/mL (≈ 2.63 µM)
- MIC Enterococcus faecalis (GC 6189) (Enterococcus sp.): 4 µg/mL (≈ 2.63 µM)
- MIC Enterococcus faecium (GC 2243) (Enterococcus sp.): 4 µg/mL (≈ 2.63 µM)
- MIC Enterococcus faecium (GC 4556) (Enterococcus sp.): 4 µg/mL (≈ 2.63 µM)
- MIC Enterococcus faecium (GC 4557) (Enterococcus sp.): 2 µg/mL (≈ 1.31 µM)
- MIC Enterococcus faecalis (ATCC 29212) (Enterococcus sp.; strain ATCC 29212): 4 µg/mL (≈ 2.63 µM)
- MIC Enterococcus faecium (GC 2243) (Enterococcus sp.; strain GC 2243): 4 µg/mL (≈ 2.63 µM)
- MIC Enterococcus faecalis (GC 4552) (Enterococcus sp.; strain GC 4552): 4 µg/mL (≈ 2.63 µM)
- MIC Enterococcus faecalis (GC 4553) (Enterococcus sp.; strain GC 4553): 4 µg/mL (≈ 2.63 µM)
- MIC Enterococcus faecalis (GC 4554) (Enterococcus sp.; strain GC 4554): 4 µg/mL (≈ 2.63 µM)
- MIC Enterococcus faecium (GC 4556) (Enterococcus sp.; strain GC 4556): 4 µg/mL (≈ 2.63 µM)
- MIC Enterococcus faecium (GC 4557) (Enterococcus sp.; strain GC 4557): 2 µg/mL (≈ 1.31 µM)
- MIC Enterococcus avium (GC 4558) (Enterococcus sp.; strain GC 4558): 4 µg/mL (≈ 2.63 µM)
- MIC Enterococcus faecalis (GC 6189) (Enterococcus sp.; strain GC 6189): 4 µg/mL (≈ 2.63 µM)
- MIC Enterococcus faecalis (GC 2242) (Enterococcus sp.; inoculum 5×10^5 CFU/mL, strain GC 2242): 4 µg/mL (≈ 2.63 µM)
- MIC Enterococcus faecalis (GC 2691) (Enterococcus sp.; inoculum 5×10^5 CFU/mL, strain GC 2691): 4 µg/mL (≈ 2.63 µM)
- MIC Enterococcus faecalis (GC 3059) (Enterococcus sp.; inoculum 5×10^5 CFU/mL, strain GC 3059): 4 µg/mL (≈ 2.63 µM)
- MIC Coagulase Negative Staphylococcus (GC 4547) (Staphylococcus sp.): 2 µg/mL (≈ 1.31 µM)
- MIC Coagulase Negative Staphylococcus (GC 4548) (Staphylococcus sp.): 1 µg/mL (≈ 0.657 µM)
- MIC Coagulase Negative Staphylococcus (GC 4549) (Staphylococcus sp.): 1 µg/mL (≈ 0.657 µM)
- MIC Coagulase Negative Staphylococcus (GC 4551) (Staphylococcus sp.): 2 µg/mL (≈ 1.31 µM)
- MIC Coagulase Negative Staphylococcus (GC 6257) (Staphylococcus sp.): 1 µg/mL (≈ 0.657 µM)
- MIC Staphylococcus aureus (ATCC 29213) (Staphylococcus sp.): 2 µg/mL (≈ 1.31 µM)
- MIC Staphylococcus aureus (GC 1131) (Staphylococcus sp.): 2 µg/mL (≈ 1.31 µM)
- MIC Staphylococcus aureus (GC 3051) (Staphylococcus sp.): 1 µg/mL (≈ 0.657 µM)
- MIC Staphylococcus aureus (GC 3053) (Staphylococcus sp.): 2 µg/mL (≈ 1.31 µM)
- MIC Staphylococcus aureus (GC 4541) (Staphylococcus sp.): 4 µg/mL (≈ 2.63 µM)
- MIC Staphylococcus aureus (GC 4542) (Staphylococcus sp.): 2 µg/mL (≈ 1.31 µM)
- MIC Staphylococcus aureus (GC 4544) (Staphylococcus sp.): 2 µg/mL (≈ 1.31 µM)
- MIC Staphylococcus aureus (GC 4545) (Staphylococcus sp.): 2 µg/mL (≈ 1.31 µM)
- MIC Staphylococcus aureus-SMITH (GC 4543) (Staphylococcus sp.): 2 µg/mL (≈ 1.31 µM)
- MIC Staphylococcus haemolyticus (GC 4546) (Staphylococcus sp.): 1 µg/mL (≈ 0.657 µM)
- MIC Staphylococcus aureus (ATCC 29213) (Staphylococcus sp.; strain ATCC 29213): 2 µg/mL (≈ 1.31 µM)
- MIC Staphylococcus aureus (GC 1131) (Staphylococcus sp.; strain GC 1131): 2 µg/mL (≈ 1.31 µM)
- MIC Staphylococcus aureus (GC 3051) (Staphylococcus sp.; strain GC 3051): 1 µg/mL (≈ 0.657 µM)
- MIC Staphylococcus aureus (GC 3053) (Staphylococcus sp.; strain GC 3053): 2 µg/mL (≈ 1.31 µM)
- MIC Staphylococcus aureus (GC 4541) (Staphylococcus sp.; strain GC 4541): 4 µg/mL (≈ 2.63 µM)
- MIC Staphylococcus aureus (GC 4542) (Staphylococcus sp.; strain GC 4542): 2 µg/mL (≈ 1.31 µM)
- MIC Staphylococcus aureus-SMITH (GC 4543) (Staphylococcus sp.; strain GC 4543): 2 µg/mL (≈ 1.31 µM)
- MIC Staphylococcus aureus (GC 4544) (Staphylococcus sp.; strain GC 4544): 2 µg/mL (≈ 1.31 µM)
- MIC Staphylococcus aureus (GC 4545) (Staphylococcus sp.; strain GC 4545): 2 µg/mL (≈ 1.31 µM)
- MIC Staphylococcus haemolyticus (GC 4546) (Staphylococcus sp.; strain GC 4546): 1 µg/mL (≈ 0.657 µM)
- MIC Coagulase Negative Staphylococcus (GC 4547) (Staphylococcus sp.; strain GC 4547): 2 µg/mL (≈ 1.31 µM)
- MIC Coagulase Negative Staphylococcus (GC 4548) (Staphylococcus sp.; strain GC 4548): 1 µg/mL (≈ 0.657 µM)
- MIC Coagulase Negative Staphylococcus (GC 4549) (Staphylococcus sp.; strain GC 4549): 1 µg/mL (≈ 0.657 µM)
- MIC Coagulase Negative Staphylococcus (GC 4551) (Staphylococcus sp.; strain GC 4551): 2 µg/mL (≈ 1.31 µM)
- MIC Coagulase Negative Staphylococcus (GC 6257) (Staphylococcus sp.; strain GC 6257): 1 µg/mL (≈ 0.657 µM)
- MIC Streptococcus agalactiae (GC 4564) (Streptococcus sp.): 0.25 µg/mL (≈ 0.164 µM)
- MIC Streptococcus pneumoniae (ATCC 6301) (Streptococcus sp.): <0.06 µg/mL
- MIC Streptococcus pneumoniae (GC 1894) (Streptococcus sp.): <0.06 µg/mL
- MIC Streptococcus pneumoniae (GC 4565) (Streptococcus sp.): <0.06 µg/mL
- MIC Streptococcus pyogenes (GC 4563) (Streptococcus sp.): 0.25 µg/mL (≈ 0.164 µM)
- MIC Streptococcus pneumoniae (ATCC 6301) (Streptococcus sp.; inoculum 5×10^5 CFU/mL, strain ATCC 6301): <0.06 µg/mL
- MIC Streptococcus pneumoniae (GC 1894) (Streptococcus sp.; inoculum 5×10^5 CFU/mL, strain GC 1894): <0.06 µg/mL
- MIC Streptococcus pyogenes (GC 4563) (Streptococcus sp.; inoculum 5×10^5 CFU/mL, strain GC 4563): 0.25 µg/mL (≈ 0.164 µM)
- MIC Streptococcus agalactiae (GC 4564) (Streptococcus sp.; inoculum 5×10^5 CFU/mL, strain GC 4564): 0.25 µg/mL (≈ 0.164 µM)
- MIC Streptococcus pneumoniae (GC 4565) (Streptococcus sp.; inoculum 5×10^5 CFU/mL, strain GC 4565): <0.06 µg/mL
- MIC Escherichia coli (ATCC 25922) (Escherichia coli): >64 µg/mL
- MIC Escherichia coli (GC 4559) (Escherichia coli): >64 µg/mL
- MIC Escherichia coli (GC 4560) (Escherichia coli): 1 µg/mL (≈ 0.657 µM)
